Key:
[1] = tested on: aldose reductase; details: literature; cited from earlier work
[2] = tested on: dulcitol accumulation in tissues of galactose-fed rats (aldose reductase inhibiting property); assay: dulcitol accumulation in lens, sciatic nerve and diaphragm of galactosemic rats; type: in vivo, male Sprague-Dawley rats
Source text: Such experiments are exemplified hereinbelow after the listing of the following general comments pertaining to these experiments:
(a) Four or more groups of six male rats, 50-70 g, Sprague-Dawley strain, were used. The first group, the control group, was fed a mixture of laboratory chow (roden Laboratory Chow, Purina) and glucose at 20% (w/w %) concentration. The untreated galactosemic group was fed a similar diet in which galactose is substituted for glucose. The third group was fed a diet prepared by mixing a given amount of the test compound with the galactose containing diet. The concentration of galactose in the diet of the treated groups was the same as that for the untreated galactosemic group.
(b) After four days, the animals were killed by decapitation. The eyeballs were removed and punctured with a razor blade; the freed lenses were rolled gently on filter paper and weighed. The sciatic nerves were dissected as completely as possible and weighed. Both tissues when frozen can be kept up to two weeks before being analyzed for dulcitol.
Only two minor reagent changes were made: (a) The rinsing mixture was an aqueous 5% (w/v) trichloroacetic acid solution and (b) the stock solution was prepared by dissolving 25 mg of dulcitol in 100 ml of an aqueous trichloroacetic acid solution. [N.B.: For each experiment the average value found in the tissue from rats fed the glucose diet was subtracted from the individual values found in the corresponding tissue in galactose-fed rats to obtain the amount of polyol accumulated.] […] In the present case the procedure of Hayman and Kinoshita was modified in that the final chromatography step was omitted in the preparation of the enzyme from bovine lens.
The figures under L, N and D represent the percentage decrease of dulcitol accumulation in the tissues of the lens, sciatic nerve and diaphragm, respectively, for treated rats as compared to untreated rats.

[3] = 26 mg/kg/day in diet, 4 days, vs untreated galactosemic rats

In the case of O=C1NC(=O)[C@@]2(CCOc3ccc(F)cc32)N1 [sorbinil, (S)-6-Fluoro-2,3-dihydrospiro(4H-1-benzopyran-4,4'-imidazolidine)-2',5'-dione], the “aldose reductase inhibition, in words” value [1] is given as “aldose reductase inhibiting properties”.
In the case of COc1ccc2c(C(=S)N(C)CC(=O)N(C)C)cccc2c1C(F)(F)F [compound 3, 2-[[[6-Methoxy-5-(trifluoromethyl)-1-naphthalenyl]thioxomethyl]methylamino]-N,N-dimethylacetamide], the “% lowering dulcitol accumulation in vivo, N (sciatic nerve)” value ([2]; 55 mg/kg/day in diet, 4 days, vs untreated galactosemic rats) is reported as 48%.
In the case of COc1ccc2c(C(=O)N(C)CC(N)=O)cccc2c1C(F)(F)F [compound 8, N-[[6-Methoxy-5-(trifluoromethyl)-1-naphthalenyl]carbonyl]-N-methylglycinamide], the “% lowering dulcitol accumulation in vivo, D (diaphragm)” value ([2]; diaphragm, 28 mg/kg/day in diet, 4 days, vs untreated galactosemic rats) is reported as 42% and the “% lowering dulcitol accumulation in vivo, N (sciatic nerve)” value ([2]; 28 mg/kg/day in diet, 4 days, vs untreated galactosemic rats) is reported as 66%.
For COC(=N)NC(=O)CN(C)C(=S)c1cccc2c(C(F)(F)F)c(OC)ccc12 [compound 4, N--[[[[5-(trifluoromethyl)-6-methoxy-1-naphthalenyl]thioxomethyl]-N--methylamino]acetyl]carbamimidic acid, methyl ester], the “% lowering dulcitol accumulation in vivo, N (sciatic nerve)” value [2, 3] was 62%.
With COC(=O)NC(=O)CN(C)C(=S)c1cccc2c(C(F)(F)F)c(OC)ccc12 [compound 6, [[[5-(Trifluoromethyl)-6-methoxy-1-naphthalenyl]thioxomethyl](methylamino)acetyl]carbamic acid, Methyl Ester] the “% lowering dulcitol accumulation in vivo, N (sciatic nerve)” value ([2]; 8.4 mg/kg/day in diet, 4 days, vs untreated galactosemic rats) was 33% and the “% lowering dulcitol accumulation in vivo, N (sciatic nerve)” value [2, 3] was 93%.
For COc1ccc2c(C(=S)N(C)CC(N)=O)cccc2c1C(F)(F)F [compound 1, N-[[5-(trifluoromethyl)-6-methoxy-1-naphthalenyl]-thioxomethyl]-N-methylglycinamide], the “in vivo results compared with compound No. 9 (tolrestat)” value ([2]; 5 mg/kg/day) was “comparable results” and the “% lowering dulcitol accumulation in vivo, N (sciatic nerve)” value ([2]; 5 mg/kg/day in diet, 4 days, vs untreated galactosemic rats) was 54%.
In the case of O=C(O)CN1C(=O)c2cccc3cccc(c23)C1=O [1,3-Dioxo-1H-benz[de]isoquinoline-2(3H)-acetic acid], the “aldose reductase inhibition, in words” value [1] is listed as “effective inhibitor of aldose reductase”.

— patent publication US4672059A, “N-[[5-(trifluoromethyl)-6-methoxy-1-naphthalenyl]-thioxomethyl and carbonyl]-N-methylglycinamides” (American Home Products Corporation, priority 1985, dated 1987)
